# Reference: patent publication US20230099441A1, “HETEROCYCLIC COMPOUND, APPLICATION THEREOF, AND COMPOSITION CONTAINING SAME” (GenEros Biopharma Ltd., priority 2019, published 2023)
# Experiments:
# [1] = tested on: mouse collagen-induced arthritis model; assay: Therapeutic efficacy in a mouse collagen-induced arthritis model (clinical score); assay type: in vivo; settings: mean of group, total score 0-12, oral, Methotrexate 0.25 mg/kg once a week, Tofacitinib 5 mg/kg once a day, X8 1 mg/kg once a day
# Source text: Example of Effect 2: Evaluation of the Therapeutic Efficacy of X8 Compound in a Mouse Collagen-Induced Arthritis Model
# (§1) Sixty male DBA/1J mice (9-10 weeks old, H-2q haplotype) were acclimatized in a standard animal room for one week and then randomly divided into 5 groups. Except for the healthy control group, the rest were inoculated with collagen antigen injection, and then received oral treatment with different compounds. The brief procedure was to mix bovine type II collagen (purchased from Chondrex, 20021) with an equal volume of Freund's complete adjuvant (purchased from Sigma, F5881), the concentration was 4 mg/ml, and it was treated with a homogenizer at a speed of 20,000 revolutions/min for 5-10 minutes. A needle was inserted between the left side of the dorsal caudal artery and the lateral vein of the mouse, and 50 microliters of modeling agent was injected subcutaneously. 21 days after the first injection, another injection was injected between the right side of the dorsal tail artery and the lateral vein of the mouse. After the first injection, oral administration was started. The drug was formulated with […] PEG300, and it was prepared for immediate use. […] The total score was between 0-12 points, and the swelling of the foot after vaccination was not calculated.
# [2] = Body weight of animals in the mouse collagen-induced arthritis model; assay type: in vivo; settings: oral, X8 1 mg/kg once a day; for body weight of animals, Mean/g: mean of group, Methotrexate 0.25 mg/kg once a week, Tofacitinib 5 mg/kg once a day; for effect on body weight of animals (in words): whole experiment, days 0-45, methotrexate 0.25 mg/kg once a week, tofacitinib 5 mg/kg once a day
# Source text: as §1
structure (smiles),measurement,setting,value
"C[C@@H]1CCN(C(=O)CC#N)C[C@@H]1N(C)c1ncnc2[nH]ccc12 [Tofacitinib, tofacitinib]","clinical score of arthritis, Mean (the larger the value, the more severe the disease)",[1]; day 0,0.00
same,"clinical score of arthritis, Mean (the larger the value, the more severe the disease)",[1]; day 21,0.00
same,"clinical score of arthritis, Mean (the larger the value, the more severe the disease)",[1]; day 25,0.00
same,"clinical score of arthritis, Mean (the larger the value, the more severe the disease)",[1]; day 28,0.81
same,"clinical score of arthritis, Mean (the larger the value, the more severe the disease)",[1]; day 31,1.83
same,"clinical score of arthritis, Mean (the larger the value, the more severe the disease)",[1]; day 33,2.19
same,"clinical score of arthritis, Mean (the larger the value, the more severe the disease)",[1]; day 35,2.52
same,"clinical score of arthritis, Mean (the larger the value, the more severe the disease)",[1]; day 38,2.77
same,"clinical score of arthritis, Mean (the larger the value, the more severe the disease)",[1]; day 40,2.62
same,"clinical score of arthritis, Mean (the larger the value, the more severe the disease)",[1]; day 42,3.14
same,"clinical score of arthritis, Mean (the larger the value, the more severe the disease)",[1]; day 45,2.90
same,"body weight of animals, Mean/g",[2]; day 0,21.94 g
same,"body weight of animals, Mean/g",[2]; day 4,22.41 g
same,"body weight of animals, Mean/g",[2]; day 7,22.76 g
same,"body weight of animals, Mean/g",[2]; day 11,22.79 g
same,"body weight of animals, Mean/g",[2]; day 14,22.55 g
same,"body weight of animals, Mean/g",[2]; day 18,22.87 g
same,"body weight of animals, Mean/g",[2]; day 20,23.20 g
same,"body weight of animals, Mean/g",[2]; day 25,22.48 g
same,"body weight of animals, Mean/g",[2]; day 28,22.46 g
same,"body weight of animals, Mean/g",[2]; day 31,22.37 g
same,"body weight of animals, Mean/g",[2]; day 33,22.65 g
same,"body weight of animals, Mean/g",[2]; day 35,22.43 g
same,"body weight of animals, Mean/g",[2]; day 38,22.30 g
same,"body weight of animals, Mean/g",[2]; day 40,20.90 g
same,"body weight of animals, Mean/g",[2]; day 42,22.13 g
same,"body weight of animals, Mean/g",[2]; day 45,22.30 g
same,effect on body weight of animals (in words),[2],weight loss in the late stage of the experiment
"CN(Cc1cnc2nc(N)nc(N)c2n1)c1ccc(C(=O)N[C@@H](CCC(=O)O)C(=O)O)cc1 [Methotrexate, methotrexate]","clinical score of arthritis, Mean (the larger the value, the more severe the disease)",[1]; day 0,0.00
same,"clinical score of arthritis, Mean (the larger the value, the more severe the disease)",[1]; day 21,0.00
same,"clinical score of arthritis, Mean (the larger the value, the more severe the disease)",[1]; day 25,0.00
same,"clinical score of arthritis, Mean (the larger the value, the more severe the disease)",[1]; day 28,0.40
same,"clinical score of arthritis, Mean (the larger the value, the more severe the disease)",[1]; day 31,1.32
same,"clinical score of arthritis, Mean (the larger the value, the more severe the disease)",[1]; day 33,1.55
same,"clinical score of arthritis, Mean (the larger the value, the more severe the disease)",[1]; day 35,2.05
same,"clinical score of arthritis, Mean (the larger the value, the more severe the disease)",[1]; day 38,2.41
same,"clinical score of arthritis, Mean (the larger the value, the more severe the disease)",[1]; day 40,2.60
same,"clinical score of arthritis, Mean (the larger the value, the more severe the disease)",[1]; day 42,3.66
same,"clinical score of arthritis, Mean (the larger the value, the more severe the disease)",[1]; day 45,4.61
same,"body weight of animals, Mean/g",[2]; day 0,21.92 g
same,"body weight of animals, Mean/g",[2]; day 4,22.30 g
same,"body weight of animals, Mean/g",[2]; day 7,22.91 g
same,"body weight of animals, Mean/g",[2]; day 11,23.33 g
same,"body weight of animals, Mean/g",[2]; day 14,21.72 g
same,"body weight of animals, Mean/g",[2]; day 18,23.92 g
same,"body weight of animals, Mean/g",[2]; day 20,24.09 g
same,"body weight of animals, Mean/g",[2]; day 25,23.64 g
same,"body weight of animals, Mean/g",[2]; day 28,23.48 g
same,"body weight of animals, Mean/g",[2]; day 31,23.12 g
same,"body weight of animals, Mean/g",[2]; day 33,23.00 g
same,"body weight of animals, Mean/g",[2]; day 35,22.08 g
same,"body weight of animals, Mean/g",[2]; day 38,22.86 g
same,"body weight of animals, Mean/g",[2]; day 40,22.70 g
same,"body weight of animals, Mean/g",[2]; day 42,22.45 g
same,"body weight of animals, Mean/g",[2]; day 45,22.30 g
same,effect on body weight of animals (in words),[2],two sudden drops
